pIC50, pKi: −log10 of the molar value. Read-outs that look alike come from different tables or passages of the source.
Assays:
[1] = system: Nannochloropsis salina; conditions: for % Inc: increase of lipid production, best conc. 10 nM
Procedure: (§1) Stock cultures were aerated by stirring with bubbling air (homemade manifold with Petco air pump, 2-4% CO2) or by orbital shaking (Thermo Scientific MAXQ 2000) at a constant speed of 150 rpm at 22±3° C. with a 16:8 hour light/dark cycle. Stocks were kept at stationary phase for use. Algae were prepared as dictated by culture center.
(§2) Compounds were selected based on reported biological activity in non-microalgae organisms. To ensure that compounds retained their quality, they were stored under advised conditions after purchasing from the manufacturer. Solutions of all assay compounds were prepared as 10 mM stock solutions by dissolving in DMSO in 2-dram amber vials and then stored in darkness −20° C. 96-well PCR plates were used to create a stock plate layout that was then transferred to the algae microplates. A plate map was used to distribute each compound to a well based on molecule name, collection number, and CAS number. For 20 μM and 200 nM assay plates, 10 mM compound stock in DMSO was diluted into plate maps of 5 mM and 50 μM assay stocks, respectively.
(§3) All materials for assay experiments were autoclaved before each use to maintain axenic algae cultures. Algae species were checked for homogeneity using a TS-100 light microscope (Nikon, Japan). […] Diluted stock solutions were made immediately prior to use for consistency and optimal plate growth. Cell density was measured on a Thermo Scientific Genesys 10S Vis Spectrophotometer (ThermoFisher, San Jose), using a 1 mL cuvette at 680 nm.
(§4) Plates were originally run in triplicate, before replicates were increased to quadruplicate, along with a separate control plate to compare growth. Due to extensive evaporation in exterior wells over time, our unique algae plate layout was designed to use the 60 interior wells out of 96 wells for the experiment. The 36 outer wells were filled with Millipore water and media to prevent evaporation and edge effects in the inner algae wells, as well as serve as blanks. The 60 wells with algae contained a total volume of 251 μL (100 μL of media+DMSO compound stock +150 μL dilute algae stock). For 20 μM and 200 nM assay plates, 10 mM compound stock in DMSO is diluted into plate maps of 5 mM and 50 μM assay stocks, respectively. […] Plates were parafilmed during growth to limit the amount of evaporation that can occur. Plates were numbered, and numerically ordered to ensure they got the same shaker space.
(§5) The shakers are kept at a constant shaking of 150 rpm. Ambient temperature is 22±3° C.

[2] = system: Nannochloropsis salina; test: 500 mL batch culture: growth, dry weight and lipid extract (gravimetric); format: cell-based; conditions: for increase in lipid levels: batch cultures; for Lipid productivity / Lipid content / Change in Lipids / Specific Growth Rate: N. salina, 500 mL culture; for Lipid content: dried lipid extract per dry biomass; for Change in Lipids: gravimetric, relative to averaged control without DMSO; for Specific Growth Rate: mid-exponential growth phase
Procedure: (§6) Batch cultures were grown in 500 mL Pyrex media bottles with stirring and air bubbling (homemade manifold with Petco air pump, 2-4% CO2). Incoming air was sterile filtered by Polyvent 4 disposable filters (Whatman, Kent, UK). […] To minimize bacterial contamination, all equipment and materials were autoclaved and media was added to flask in a Purifier Vertical Clean bench (Labconco, Kansas City, Mo.). […] The amount of DMSO is standardized for all experiments to 0.4%.
(§7) For all compound cultures, the 2 mL DMSO stock solution was added to media (without algae) first and mixed well. Control cultures were grown without DMSO. DMSO controls consisted of 0.04-1.0% DMSO. After the addition of algae and media, the container was plugged with a bug stopper vented closure cap and mixed thoroughly. Absorbance is measured immediately for Day 0 analysis. Afterward, absorbance was measured every 1-2 days with a cuvette (1 mL volume) on the Thermo Scientific Genesys 10S V is Spectrophotometer (ThermoFisher, San Jose) at 680 nm.
(§8) Batch cultures were also repeated in triplicate and compared to a control culture grown at the same time. Algae were harvested and lipids were extracted for gravimetric analysis.
Cultures were harvested at day 6 in stationary phase. Cultures were pelleted, lyophilized, and extracted side-by-side. The experiment was performed in triplicate.
The nonpolar algal extracts were harvested from 500 mL cultures when indicated on growth curves, a minimum of 3 days into stationary phase. […] Cells were crushed and nonpolar lipids were extracted by sonication (Fisher Scientific Model 120 Sonic Dismembrator, ThermoFisher, San Jose) for 1 minute in chloroform, followed by chloroform-methanol extractions, washed with PBS butter, and dried under vacuum.^55-60 The crude non-polar algae extracts were then analyzed by ^1H Nuclear Magnetic Resonance (^1H NMR) for verification of TAG presence and examination of the purity of the extract (determination of level of chlorophyll).
(§9) Cell density was monitored by measuring absorbance at 680 nm every 1-2 days.
(§10) 500-mL cultures were harvested 6 days into stationary phase based on absorbance values. Cells were concentrated by centrifugation and lyophilization to remove water. Nonpolar lipids were extracted by sonication and solvent (chloroform-methanol and PBS buffer). […] Changes in lipid levels for batch cultures were determined by crude lipid extract mass.

[3] = DPPH free radical scavenging activity; cited from earlier work
[4] = system: Phaeodactylum tricornutum; test: 500 mL batch culture: growth, dry weight and lipid extract (gravimetric); format: cell-based; conditions: P. tricornutum, 500 mL culture, 120 nM
Procedure: as §6, §7, §8
The nonpolar algal extracts were harvested from 500 mL cultures when indicated on growth curves, a minimum of 3 days into stationary phase.
as §9, §10

[5] = system: fatty acid and sterol synthesis; conditions: cited from earlier work
[6] = system: Nannochloropsis oculata; conditions: for Nile Red Fluorescence % Increase: compounds tested at 200 nM, initial screening, p<0.05
[7] = target: Cdk2/cyclin E (Homo sapiens, UniProt P24941); conditions: cited from earlier work
[8] = system: Nannochloris sp.; test: Microplate assay: growth (absorbance 680 nm) and intracellular lipids (Nile Red fluorescence); format: cell-based; conditions: for Absorbance (percent increase) / Nile Red percent increase: initial microplate screen, relative to control; for % Lipid increase based on Nile red fluorescence intensity: (water), t=day 0; for Nile Red Fluorescence % Increase: initial screening, p<0.05
Procedure: as §1, §2, §3, §4, §5

[9] = target: Cdk2/cyclin A (Homo sapiens, UniProt P24941); conditions: Cdk2/cyclin A; cited from earlier work
[10] = target: c-Jun N-terminal kinase; conditions: cited from earlier work
[11] = target: PKA (Homo sapiens, UniProt P17612); conditions: cited from earlier work
[12] = target: PKC; conditions: cited from earlier work
[13] = target: EGFR tyrosine kinase (Homo sapiens, UniProt P00533); conditions: cited from earlier work
Chain of EGFR tyrosine kinase (P00533 25-1210): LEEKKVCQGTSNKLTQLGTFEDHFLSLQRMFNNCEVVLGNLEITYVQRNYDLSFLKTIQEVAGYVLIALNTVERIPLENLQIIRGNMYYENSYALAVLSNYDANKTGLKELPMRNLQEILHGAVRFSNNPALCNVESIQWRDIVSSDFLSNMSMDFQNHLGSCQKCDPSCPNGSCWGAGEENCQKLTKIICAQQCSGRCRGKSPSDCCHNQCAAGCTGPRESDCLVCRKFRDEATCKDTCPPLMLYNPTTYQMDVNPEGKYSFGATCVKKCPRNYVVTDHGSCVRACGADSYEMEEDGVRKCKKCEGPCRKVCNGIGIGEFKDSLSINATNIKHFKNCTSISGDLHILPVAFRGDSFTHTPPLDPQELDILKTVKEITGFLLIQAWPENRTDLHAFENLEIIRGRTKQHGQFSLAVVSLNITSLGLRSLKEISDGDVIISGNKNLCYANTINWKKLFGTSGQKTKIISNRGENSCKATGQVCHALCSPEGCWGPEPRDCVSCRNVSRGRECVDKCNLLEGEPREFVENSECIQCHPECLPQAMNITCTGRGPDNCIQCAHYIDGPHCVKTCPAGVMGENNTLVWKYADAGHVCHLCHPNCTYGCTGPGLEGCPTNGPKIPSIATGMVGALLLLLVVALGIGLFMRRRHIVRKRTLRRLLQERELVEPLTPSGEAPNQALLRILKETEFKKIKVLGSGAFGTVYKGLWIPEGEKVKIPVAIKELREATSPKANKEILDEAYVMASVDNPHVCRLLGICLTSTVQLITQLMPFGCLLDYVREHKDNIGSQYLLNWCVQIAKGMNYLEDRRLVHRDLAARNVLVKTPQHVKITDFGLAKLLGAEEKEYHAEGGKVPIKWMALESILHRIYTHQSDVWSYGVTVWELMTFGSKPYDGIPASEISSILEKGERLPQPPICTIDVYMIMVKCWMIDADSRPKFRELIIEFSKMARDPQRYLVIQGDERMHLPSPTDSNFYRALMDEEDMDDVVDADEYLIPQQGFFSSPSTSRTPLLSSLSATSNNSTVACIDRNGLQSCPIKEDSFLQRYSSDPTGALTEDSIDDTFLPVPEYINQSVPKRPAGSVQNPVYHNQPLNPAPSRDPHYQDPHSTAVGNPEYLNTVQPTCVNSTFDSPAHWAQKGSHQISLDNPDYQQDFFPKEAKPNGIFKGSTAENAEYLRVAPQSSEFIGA

[14] = system: Phaeodactylum tricornutum; test: Microplate assay: growth (absorbance 680 nm) and intracellular lipids (Nile Red fluorescence); format: cell-based
Procedure: as §1, §2, §3, §4, §5

[15] = target: PTP1b (Homo sapiens, UniProt P18031); conditions: cited from earlier work
Chain of PTP1b (P18031 whole entry, species assumed): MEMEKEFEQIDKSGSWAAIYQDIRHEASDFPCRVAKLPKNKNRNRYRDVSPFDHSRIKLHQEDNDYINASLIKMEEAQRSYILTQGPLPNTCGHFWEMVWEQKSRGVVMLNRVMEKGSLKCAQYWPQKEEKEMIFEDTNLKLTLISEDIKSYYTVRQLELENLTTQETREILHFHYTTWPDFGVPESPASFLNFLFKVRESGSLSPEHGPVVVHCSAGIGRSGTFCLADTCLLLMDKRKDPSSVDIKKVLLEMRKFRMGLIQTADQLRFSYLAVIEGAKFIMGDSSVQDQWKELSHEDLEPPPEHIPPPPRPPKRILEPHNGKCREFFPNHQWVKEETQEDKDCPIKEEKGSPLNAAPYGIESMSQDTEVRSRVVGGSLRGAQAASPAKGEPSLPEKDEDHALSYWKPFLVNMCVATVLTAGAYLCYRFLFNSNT

[16] = target: fatty acid amide hydrolase (Homo sapiens, UniProt O00519); conditions: cited from earlier work
Chain of fatty acid amide hydrolase (O00519 whole entry): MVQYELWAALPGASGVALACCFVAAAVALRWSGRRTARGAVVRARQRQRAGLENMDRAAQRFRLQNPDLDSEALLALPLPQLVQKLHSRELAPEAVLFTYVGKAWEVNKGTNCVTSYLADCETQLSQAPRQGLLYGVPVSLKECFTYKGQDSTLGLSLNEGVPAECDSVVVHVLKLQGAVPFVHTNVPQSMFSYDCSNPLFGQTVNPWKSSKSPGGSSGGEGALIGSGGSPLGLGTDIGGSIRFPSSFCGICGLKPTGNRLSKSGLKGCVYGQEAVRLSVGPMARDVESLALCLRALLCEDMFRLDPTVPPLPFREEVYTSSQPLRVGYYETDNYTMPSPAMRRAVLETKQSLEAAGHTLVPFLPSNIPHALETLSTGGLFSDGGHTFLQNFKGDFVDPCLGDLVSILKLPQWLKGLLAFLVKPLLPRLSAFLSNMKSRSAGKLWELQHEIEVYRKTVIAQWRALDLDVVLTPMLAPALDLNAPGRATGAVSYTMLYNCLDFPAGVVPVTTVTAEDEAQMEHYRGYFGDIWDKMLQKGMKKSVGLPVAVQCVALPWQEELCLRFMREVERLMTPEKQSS

[17] = target: T1, PKA (rat liver catalytic subunit) (Rattus norvegicus, UniProt P27791); conditions: cited from earlier work
T1 construct: rat liver catalytic subunit; host or cells: rat liver

[18] = system: MLCK; conditions: cited from earlier work
[19] = target: p70 S6 kinase activation; conditions: signaling that leads to p70 S6 kinase activation; cited from earlier work
[20] = system: CDK; conditions: CDKs; cited from earlier work
[21] = system: ERK signaling pathway; conditions: cited from earlier work
[22] = system: Nannochloropsis oculata; test: Lipid composition of batch culture extracts (fatty acid saturation / PUFA by 1H NMR, MALDI-TOF, GC/MS); format: cell-based; conditions: N. oculata, 40 nM, n=1
Procedure: The nonpolar algal extracts were harvested from 500 mL cultures when indicated on growth curves, a minimum of 3 days into stationary phase. […] Cells were crushed and nonpolar lipids were extracted by sonication (Fisher Scientific Model 120 Sonic Dismembrator, ThermoFisher, San Jose) for 1 minute in chloroform, followed by chloroform-methanol extractions, washed with PBS butter, and dried under vacuum.^55-60 The crude non-polar algae extracts were then analyzed by ^1H Nuclear Magnetic Resonance (^1H NMR) for verification of TAG presence and examination of the purity of the extract (determination of level of chlorophyll). The extracts were then divided for analysis; one part for transesterification, one part to save as crude extract, and one part for SPE separation and MALDI-TOF analysis of TAGs.
Triacylglycerols can be isolated by solid-phase extraction (SPE) with 500 mg silica SPE cartridges (Silicycle, Quebec). The nonpolar extract is dissolved in 300 μL hexanes, and loaded on the SPE cartridge primed with hexanes. A mixture of 80:20:1 hexanes/diethyl ether/acetic acid was used as mobile phase to elute the TAGs.^61 SPE removes any chlorophyll in this process. Residual polar fraction containing polar lipids and chlorophyll was obtained by elution with acetone. All extracts and TAG fractions were dried under vacuum and stored under argon in amber vials at −20° C. before spectroscopic analysis. After SPE, the purified TAG fraction was reanalyzed with ^1H NMR spectroscopy for TAG characterization.
The TOF was in Reflectron mode with laser intensity from 5500-6500 Volts. Each acquisition consisted of 2500 shots with a focus mass of 900 Da, and a scan range of m/z 400-1100. Multiple acquisition scans were performed at different laser intensities to determine optimal conditions. Samples for the MALDI-TOF were diluted to 5 mg/mL in hexane, and spotted in the fast-evaporation method in a 1:2 ratio with DHB (2,5-dihydroxybenzoic acid) as the matrix. Re-spotting with methanol allowed for the matrix and sample to mix without hexane interactions, and allowed for better crystal formation. All samples on MALDI plate were allowed to dry before MS analysis. Data was normalized to base peak in all cases.
After the initial weight was recorded, the nonpolar extract set aside for transesterification was dissolved in 3.0 mL of 0.6 M sulfuric acid in methanol and stirred vigorously at 60° C. for 45 minutes.
Initial GC/MS temperature was 50° C. and end was 200° C. over at a one hour period for optimal FAME peak separation.
Peak assignment of fatty acids and their derivatives are based on NMR spectroscopic studies of previously reported algal lipid extracts^9 and comparison to standards such as olive oil (ACROS) and fatty acid mixtures.
We developed a quick and robust method to screen if the screened compound effect fatty acid saturation levels using ^1H NMR spectroscopy. The amount of saturated fatty acids (SFA), monounsaturated fatty acids (MUFAs), and polyunsaturated fatty acids (PUFAs) was determined using peak area ratios.
Calculated based on ^1H NMR integral ratios for the proton signals for the methyl group of PUFA components vs. the methyl groups of monounsaturated and saturated components.

[23] = system: Nannochloris sp.; test: 500 mL batch culture: growth, dry weight and lipid extract (gravimetric); format: cell-based; conditions: Nannochloris sp., 500 mL culture, 40 nM
[24] = system: microalgae; test: 500 mL batch culture (growth, gravimetric lipids), algae strain not stated; format: cell-based; conditions: 500 mL batch cultures (Table 30)
[25] = target: Diacylglycerol lipase; conditions: cited from earlier work
[26] = system: microsomal lipid peroxidation; conditions: cited from earlier work
[27] = gravimetric, relative to averaged control without DMSO
[28] = 40 μM, initial microplate screen, relative to control

## 2-tert-Butyl-4-hydroxyanisole and 3-tert-butyl-4-hydroxyanisole (mixture) [BHA]
[1]; N. salina
  % Inc: 290.14%
[2]; 4 nM
  increase in lipid levels: 63%
  Lipid productivity: 8.1 ± 0.6 mgL^−1day^−1
  Lipid content: 28.8 ± 11.4 % w/w
  Change in Lipids: 63%
  Specific Growth Rate: 0.23 ± 0.002 day⁻¹
[3]
  pIC50: 4.37

## NC(=O)c1ncn([C@@H]2O[C@H](COP(=O)(O)O)[C@@H](O)[C@H]2O)c1N [AICAR, [(2R,3S,4R,5R)-5-(4-Carbamoyl-5-amino-imidazol-1-yl)-3,4-dihydroxyoxolan-2-yl]methyl dihydrogen phosphate]
[4]
  Lipid productivity: 7.0 ± 0.9 mgL^−1day^−1
[4]; dried lipid extract per dry biomass
  Lipid content: 22.7 ± 1.3 % w/w
[4]; [27]
  Change in Lipids: 45%
[4]; mid-exponential growth phase
  Specific Growth Rate: 0.34 ± 0.04 day⁻¹
[5]
  inhibitor of fatty acid and sterol synthesis (concentration): synthesis (0.5 mM), inactivates HMG-CoA reductase

## CCCCc1c(-c2ccc(O)cc2)[nH]c2nccnc12 [Aloisine A, 7-n-Butyl-6-(4-hydroxyphenyl)[5H]pyrrolo[2,3-b]pyrazine]
[6]; N. oculata
  Nile Red Fluorescence % Increase: 117.7%
[7]
  pIC50: 6.40
[8]; 200 nM
  Absorbance (percent increase): −5.4%
  Nile Red percent increase: 125.9%
[8]; 20 μM
  Absorbance (percent increase): −12.6%
  Nile Red percent increase: 84.1%
[9]
  pIC50: 6.92
[10]
  pIC50: 5.00 to 5.52

## CN(C)CCCn1cc(C2=C(c3c[nH]c4ccccc34)C(=O)NC2=O)c2ccccc21 [Bisindolylmaleimide, 2-[1-(3-Dimethylaminopropyl)-1H-indol-3-yl]-3-(1H-indol-3-yl)-maleimide]
[8]; 0 h, 1.3 µM
  % Increase based on Nile Red Fluorescence Intensity: 70%
[8]; Nannochloris sp., 49 nM
  % Lipid increase based on Nile red fluorescence intensity: 141%
[11]
  pKi: 5.70
[12]
  pKi: 8.00

## O=C(/C=C/c1ccc(O)c(O)c1)c1ccc(O)cc1O [Butein, (E)-1-(2,4-dihydroxyphenyl)-3-(3,4-dihydroxyphenyl)prop-2-en-1-one]
[13]
  pIC50: 4.19
[14]; 54 nM-40 μM (H2O)
  % increase (lipid production): 1-116 (H2O) %
[14]; 40 μM
  % increase (lipid production): 14%

## CCN(NO)C1=CC(=O)C(=O)C=C1 [Ethyl 3,4-dephostatin, 4-[(hydroxyamino)-ethylamino]cyclohexa-3,5-diene-1,2-dione]
[6]; 0.0252-165.6, concentrations giving an increase: (none)
  % increase (lipid production): (none)
[1]; 0.0252-165.6 nM (H2O)
  % increase (lipid production): 8-61%
[1]; 0.0252-165.6 nM, not marked H2O
  % increase (lipid production): 8-20%
[14]; [28]
  Absorbance (percent increase): −2.4%
  Nile Red percent increase: 115.0%
[14]; 0.0252-165.6 nM (H2O)
  % increase (lipid production): 8-106%
[14]; 2-18.4 nM
  % increase (lipid production): 3-67%
[15]
  pIC50: 5.49

## CCCCNC(=O)Oc1ccc(OCc2ccccc2)cc1 [FAAH Inhibitor I, 4-Benzyloxyphenyl-n-butylcarbamate]
[8]; Nannochloris sp., 0.6 nM
  % Lipid increase based on Nile red fluorescence intensity: 189%
[8]; Nannochloris sp., 0.6 nM, dissolved in water, added t=day 0
  % Increase based on Nile Red Fluorescence Intensity: 189%
[8]; Nannochloris sp., 49 nM, dissolved in water, added t=day 0
  % Increase based on Nile Red Fluorescence Intensity: 160%
[8]; Nannochloris sp., 440 nM, dissolved in water, added t=day 0
  % Increase based on Nile Red Fluorescence Intensity: 161%
[8]; Nannochloris sp., 1.3 μM, dissolved in water, added t=day 0
  % Increase based on Nile Red Fluorescence Intensity: 152%
[16]
  pIC50: 6.40

## Oc1cc(O)cc(/C=C/c2ccc(O)c(O)c2)c1 [Piceatannol, 3,3′,4,5′-Tetrahydroxy-trans-stilbene]
[1]; 40 μM, dose-response microplate screen
  Nile Red percent increase: 195%
[1]; 55-40 μM
  % increase (lipid production): 0.3-148%
[17]
  pIC50: 5.52
[14]; 4-40 μM (H2O)
  % increase (lipid production): 7-41 (H2O) %
[12]; PKC
  pIC50: 5.10
[18]
  pIC50: 4.92

## CO[C@H]1C[C@@H]2CC[C@@H](C)[C@@](O)(O2)C(=O)C(=O)N2CCCC[C@H]2C(=O)O[C@H]([C@H](C)C[C@@H]2CC[C@@H](O)[C@H](OC)C2)CC(=O)[C@H](C)/C=C(\C)[C@@H](O)[C@@H](OC)C(=O)[C@H](C)C[C@H](C)/C=C/C=C/C=C/1C [Rapamycin, (3S,6R,7E,9R,10R,12R,14S,15E,17E,19E,21S,23S,26R,27R,34aS)-9,10,12,13,14,21,22,23,24,25,26,27,32,33,34,34a-hexadecahydro-9,27-dihydroxy-3-[(1R)-2-[(1S,3R,4R)-4-hydroxy-3-methoxycyclohexyl]-1-methylethyl]-10,21-dimethoxy-6,8,12,14,20,26-hexamethyl-23,27-epoxy-3H-pyrido[2,1-c][1,4]-oxaazacyclohentriacontine-1,5,11,28,29(4H,6H,31H)-pentone]
[6]; N. oculata
  Nile Red Fluorescence % Increase: 141.6%
[8]; 200 nM
  Absorbance (percent increase): −5.9%
  Nile Red percent increase: 107.9%
[8]; Nannochloris sp., compounds tested at 20 μM
  Nile Red Fluorescence % Increase: 117.3%
[19]
  pIC50: 10.30

## COc1ccc2c(c1)/C(=C/c1cnc[nH]1)C(=O)N2 [SU9516]
[20]
  pIC50: 7.66

## Cn1cnc2c1c(=O)[nH]c(=O)n2C [Theobromine]
[8]; Nannochloris sp., compounds tested at 200 nM
  Nile Red Fluorescence % Increase: 34.3%
[21]
  potency: (potency = 0.004 μM)

## CCCCCCCCCCC[C@@H](C[C@@H]1OC(=O)[C@H]1CCCCCC)OC(=O)[C@H](CC(C)C)NC=O [orlistat, (S)-((S)-1-((2S,3S)-3-hexyl-4-oxooxetan-2-yl)tridecan-2-yl) 2-formamido-4-methylpentanoate]
[22]; Normal 0 ± 1
  SFAs (%): 3%
[22]; Normal 4 ± 7
  MUFAs (%): 29%
[22]; Normal 28 ± 4
  n3 PUFAs (%): 16%
[22]; Normal 96 ± 7
  PUFAs (%): 68%
[6]; N. oculata, 13 nM
  % change in abs: 0.83%
  % in NR fl: 63.67%
[1]; N. salina, 40 μM
  % change in abs: −31.92%
  % in NR fl: 61.76%
[23]
  Lipid productivity: 5.1 ± 1.5 mgL^−1day^−1
[23]; [27]
  Change in Lipids: 72%
[23]; mid-exponential growth phase
  Specific Growth Rate: 0.20 ± 0.01 day⁻¹
[24]
  effect on growth and lipid levels: positive increases in growth and lipid levels
[25]
  pIC50: 6.00

## CCCOC(=O)c1cc(O)c(O)c(O)c1 [propyl gallate, propyl 3,4,5-trihydroxybenzoate]
[1]; N. salina
  % Inc: 264.42%
[2]; 40 nM
  increase in lipid levels: 67%
  Lipid productivity: 8.3 ± 1.7 mgL^−1day^−1
  Lipid content: 25.9 ± 11.4 % w/w
  Change in Lipids: 67%
  Specific Growth Rate: 0.23 ± 0.002 day⁻¹
[26]
  pIC50: 5.35
